Experimental data reported in PMC11284788, “NN1213 – A Potent, Long-Acting, and Selective Analog of Human Amylin” (Journal of Medicinal Chemistry, 2024).
Values after ≈ are worked out from the molar mass of the structure shown. Like-named read-outs stand apart in the source and are kept apart here. Numbered stars: 1 amine (or outer) side, 2 acyl side, 3 side chain; on linkers, the order of the positions; unused ones are H or OH. Bridge positions count the residues as written; N and C are the ends. Side chains are listed from the residue outwards. Peptide text beside a SMILES is read from it. * marks the point of attachment. C20 diacid = O=C(O)CCCCCCCCCCCCCCCCCCC(=O)*; γGlu = O=C(O)[C@H](CCC(=O)[*:2])N[*:1]

Legend:
[1] = Solubility versus pH profile
hAMY3R = target: T1, hAMY3R (Homo sapiens, UniProt O60896+P30988); experiment: cAMP-responsive element luciferase reporter assay, human AMY3R; type: cell-based; parameters: expressed in transfected cells; settings: for ratio hCTR/hAMY3R: ratio of luciferase EC50 values
T1 sequence (P30988 25-474): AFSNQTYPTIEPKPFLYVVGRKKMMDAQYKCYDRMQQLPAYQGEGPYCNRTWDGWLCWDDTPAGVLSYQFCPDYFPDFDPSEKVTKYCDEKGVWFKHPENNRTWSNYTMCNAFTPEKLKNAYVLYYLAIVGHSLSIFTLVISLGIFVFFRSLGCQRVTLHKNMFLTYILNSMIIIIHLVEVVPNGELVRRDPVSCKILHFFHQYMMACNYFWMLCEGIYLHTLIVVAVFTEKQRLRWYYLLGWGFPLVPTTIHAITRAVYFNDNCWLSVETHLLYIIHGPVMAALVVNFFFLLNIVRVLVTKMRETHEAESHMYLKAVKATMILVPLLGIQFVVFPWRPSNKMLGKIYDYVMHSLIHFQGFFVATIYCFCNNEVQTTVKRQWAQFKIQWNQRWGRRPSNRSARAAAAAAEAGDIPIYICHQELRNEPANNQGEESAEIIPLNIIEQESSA
T1 sequence (O60896 24-148 partner): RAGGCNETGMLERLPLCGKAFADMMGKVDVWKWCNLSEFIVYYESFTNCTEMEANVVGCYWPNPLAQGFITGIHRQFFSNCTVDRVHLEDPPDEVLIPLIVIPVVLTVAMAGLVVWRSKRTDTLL

rAMY3R = target: T2, rAMY3R (Rattus norvegicus, UniProt P32214+Q9JJ73); experiment: scintillation proximity binding assay, rAMY3R membranes; parameters: expressed in transfected cells; host or cells: BHK tk-ts 13, transient co-transfection (FuGENE 6); settings: for rAMY3R pIC50: SPA binding assay, Tables S13 and S15; for ratio rCTR/rAMY3R: ratio of binding IC50 values
T2 sequence (P32214 25-479 isoform P32214-2 limits assumed): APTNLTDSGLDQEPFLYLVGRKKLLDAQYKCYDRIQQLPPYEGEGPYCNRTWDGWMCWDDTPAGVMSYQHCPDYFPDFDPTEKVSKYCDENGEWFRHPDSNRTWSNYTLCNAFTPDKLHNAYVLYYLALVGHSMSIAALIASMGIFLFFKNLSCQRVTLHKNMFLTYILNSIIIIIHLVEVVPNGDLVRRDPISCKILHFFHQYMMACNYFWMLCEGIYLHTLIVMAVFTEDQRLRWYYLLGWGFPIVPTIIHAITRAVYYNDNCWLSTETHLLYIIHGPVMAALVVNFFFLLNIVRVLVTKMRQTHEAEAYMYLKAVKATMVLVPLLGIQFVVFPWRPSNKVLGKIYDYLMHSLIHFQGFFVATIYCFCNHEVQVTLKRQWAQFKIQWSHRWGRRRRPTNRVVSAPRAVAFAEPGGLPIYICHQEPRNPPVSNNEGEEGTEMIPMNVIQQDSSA
T2 sequence (Q9JJ73 23-147 partner): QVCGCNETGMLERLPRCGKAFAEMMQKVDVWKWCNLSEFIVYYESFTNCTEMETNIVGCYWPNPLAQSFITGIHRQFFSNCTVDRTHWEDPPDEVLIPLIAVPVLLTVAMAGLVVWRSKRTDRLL
Description: The apparent binding affinities were determined using a scintillation proximity assay with beads from PerkinElmer and cell membranes containing the AMY3R or CTRs. […] Membranes were harvested and membranes were prepared and kept at −80 °C until use. The assay was performed in a 384-well Optiplate (PerkinElmer). Membranes were mixed with scintillation proximity assay beads in a 1:1 ratio. […] Samples were analyzed on a TopCounter (Packard). The IC50 values were calculated using GraphPad Prism. See Supporting Information S7: SAR Screening Assay Methods (Binding Assays (Human and Rat)) for more information.
Binding Assays (Human and Rat). Brief descriptions of the methods used to determine binding affinities for SAR analysis are described below. Curves and IC50 values were plotted and calculated in GraphPad Prism using nonlinear regression (one site binding competition analysis), with pIC50 values […]
values were used to calculate the binding affinity ratios in order to express the selectivity of compounds for the AMY3R versus the CTR.
CTR Binding Assay. The binding assay was performed using scintillation proximity assay (SPA) beads (RPNQ0001) from PerkinElmer and cell membranes containing either the hCTR or rCTR. BHK […]
Membranes were prepared in the following way: the cells were rinsed with PBS and incubated with Versene for approximately 5 min before harvesting. The cells were flushed with PBS and the cell-suspension was centrifuged for 5 min at 1000 rpm. Cells were homogenized (Ultra Turrax) in a buffer […]
containing 20 mM Na-HEPES and 0.1 mM EDTA (pH 7.4, buffer 2). The resulting pellet was re-suspended in buffer 2 and protein concentration was measured (BCA protein assay, Pierce). The homogenate was kept cold during the whole procedure. The membranes were stored at –80 °C until […]
The binding assay was performed in a 384-well Optiplate (PerkinElmer) in a total volume of 40 μL.
Membranes were mixed with SPA beads in a 1:1 ratio. […]
mg/well. Test compounds were dissolved in DMSO and further diluted in assay buffer (50 mM HEPES, pH 7.4, 1 mM CaCl2, 5 mM MgCl2, 0.1% ovalbumin, and 0.02% Tween-20).
Calcitonin (NEX422 PerkinElmer) was dissolved in assay buffer and added to the Optiplate at a final […]
prior to centrifugation (1500 rpm, 10 min). Samples were analyzed on TopCounter (Packard).
AMY3R Binding Assay. The binding assay was performed using SPA beads (RPNQ0001) from PerkinElmer and cell membranes containing either the hAMY3R or rAMY3R. BHK tk-ts 13 cells were […]
and cultured as described above. Membranes were prepared in the following way: the cells were rinsed with PBS and incubated with Versene for approximately 5 min before harvesting. The cells were flushed with PBS and the cell-suspension was centrifuged for 5 min at 1000 rpm. Cells were homogenized (Ultra Turrax) in a buffer containing 20 mM Na-HEPES and 10 mM EDTA (pH 7.4), and […]
The resulting pellet was re-suspended, homogenized, and
7.4, buffer 2). The resulting pellet was re-suspended in buffer 2 and protein concentration was measured (BCA protein assay, Pierce). The homogenate was kept cold during the whole procedure.
The membranes were stored at –80 °C until use.
Membranes were mixed with SPA beads in a 1:1 ratio. The final concentration of SPA beads was 0.05 mg/well. Test compounds were dissolved in DMSO and further diluted in assay buffer (50 mM […]
rAMY (NEX448 PerkinElmer) was dissolved in assay buffer and added to the Optiplate at a final

[2] = bis-tris-propane buffer, pH 6, aqueous buffer
[3] = bis-tris-propane buffer, pH 6.5, aqueous buffer
[4] = bis-tris-propane buffer, pH 7, aqueous buffer
[5] = bis-tris-propane buffer, pH 7.5, aqueous buffer
[6] = bis-tris-propane buffer, pH 8, aqueous buffer
[7] = lactate buffer, pH 4, aqueous buffer
[8] = lactate buffer, pH 5, aqueous buffer

| SMILES | solubility kinetic [1, 2] | solubility kinetic [1, 3] | solubility kinetic [1, 4] | solubility kinetic [1, 5] | solubility kinetic [1, 6] | solubility kinetic [1, 7] | solubility kinetic [1, 8] | EC50 (hAMY3R; luciferase (human receptor assay), Tables S12 and S14, read-out: hAMY3R pEC50 (converted)) | EC50 (hAMY3R; luciferase (human receptor assay), BHK cells stably expressing hCTR+RAMP3 and CRE-luciferase, 3 h, 37 °C, 10% FBS, read-out: hAMY3R EC50) | ratio hCTR/hAMY3R (hAMY3R) | rAMY3R pIC50 (rAMY3R) | ratio rCTR/rAMY3R (rAMY3R) | hAMY3R pEC50 (hAMY3R; luciferase (human receptor assay), Tables S12 and S14) | IC50 (rAMY3R; SPA, BHK cell membranes, 125I-rat amylin, 120 min 25 °C, read-out: rAMY3R IC50) |
| --- | --- | --- | --- | --- | --- | --- | --- | --- | --- | --- | --- | --- | --- | --- |
| CC(C)C[C@H](NC(=O)[C@H](CCCNC(=N)N)NC(=O)[C@H](CCC(N)=O)NC(=O)[C@@H](NC(=O)[C@H](C)NC(=O)[C@@H]1CSSC[C@H](NC(=O)[C@@H](N)CCCCNC(=O)CC[C@H](NC(=O)CC[C@H](NC(=O)CCCCCCCCCCCCCCCCCCC(=O)O)C(=O)O)C(=O)O)C(=O)N[C@@H](CC(N)=O)C(=O)N[C@@H]([C@@H](C)O)C(=O)N[C@@H](C)C(=O)N[C@@H]([C@@H](C)O)C(=O)N1)[C@@H](C)O)C(=O)N[C@@H](C)C(=O)N[C@@H](CC(=O)O)C(=O)N[C@@H](Cc1ccccc1)C(=O)N[C@@H](CC(C)C)C(=O)N[C@@H](CCCNC(=N)N)C(=O)N[C@@H](Cc1c[nH]cn1)C(=O)N[C@@H](CO)C(=O)N[C@@H](CO)C(=O)N1CCC[C@H]1C(=O)N[C@@H](CC(N)=O)C(=O)N[C@@H](Cc1ccccc1)C(=O)NCC(=O)N[C@@H](C)C(=O)N1CCC[C@H]1C(=O)N[C@@H](CC(C)C)C(=O)N[C@@H](CO)C(=O)N[C@@H](CO)C(=O)N[C@H](C(=O)N[C@@H](CC(N)=O)C(=O)N[C@H](C(=O)NCC(=O)N[C@@H](CO)C(=O)N[C@@H](CC(=O)O)C(=O)N[C@H](C(=O)N[C@@H](Cc1ccc(O)cc1)C(N)=O)[C@@H](C)O)C(C)C)[C@@H](C)O [Peptide 5] (H-K([γGlu-γGlu-C20 diacid])CNTATCATQRLADFLRHSSPNFGAPLSSTNVGSDTY-NH2; disulfide 2-7) | ≥ 200 µM | ≥ 200 µM | ≥ 200 µM | ≥ 200 µM | ≥ 200 µM | ≥ 200 µM | 172 µM (≈ 776 µg/mL) | 219 pM | 219 pM | 12 | 8.89 | 81 |  |  |
| CC[C@H](C)[C@H](NC(=O)[C@H](C)NC(=O)CNC(=O)[C@H](Cc1ccccc1)NC(=O)[C@H](CC(N)=O)NC(=O)[C@@H]1CCCN1C(=O)[C@H](CO)NC(=O)[C@H](CO)NC(=O)[C@H](Cc1c[nH]cn1)NC(=O)[C@H](CCCNC(=N)N)NC(=O)[C@H](CC(C)C)NC(=O)[C@H](Cc1ccccc1)NC(=O)[C@H](CC(=O)O)NC(=O)[C@H](C)NC(=O)[C@H](CC(C)C)NC(=O)[C@H](CCCNC(=N)N)NC(=O)[C@H](CCC(N)=O)NC(=O)[C@@H](NC(=O)[C@H](C)NC(=O)[C@@H]1CSSC[C@H](NC(=O)[C@@H](N)CCCCNC(=O)CC[C@H](NC(=O)CC[C@H](NC(=O)CCCCCCCCCCCCCCCCCCC(=O)O)C(=O)O)C(=O)O)C(=O)N[C@@H](CC(N)=O)C(=O)N[C@@H]([C@@H](C)O)C(=O)N[C@@H](C)C(=O)N[C@@H]([C@@H](C)O)C(=O)N1)[C@@H](C)O)C(=O)N1CCC[C@H]1C(=O)N[C@@H](CO)C(=O)N[C@@H](CO)C(=O)N[C@H](C(=O)N[C@@H](CC(N)=O)C(=O)N[C@H](C(=O)NCC(=O)N[C@@H](CO)C(=O)N[C@@H](CC(=O)O)C(=O)N[C@H](C(=O)N[C@@H](Cc1ccc(O)cc1)C(N)=O)[C@@H](C)O)C(C)C)[C@@H](C)O [Peptide 6] (H-K([γGlu-γGlu-C20 diacid])CNTATCATQRLADFLRHSSPNFGAIPSSTNVGSDTY-NH2; disulfide 2-7) | ≥ 200 µM | 190 µM (≈ 857 µg/mL) | ≥ 200 µM | ≥ 200 µM | ≥ 200 µM | ≥ 200 µM | ≥ 200 µM |  |  | 15 |  | 447 |  |  |
| CC[C@H](C)[C@H](NC(=O)[C@H](C)NC(=O)CNC(=O)[C@H](Cc1ccccc1)NC(=O)[C@H](CC(N)=O)NC(=O)[C@@H]1CCCN1C(=O)[C@H](CO)NC(=O)[C@H](CO)NC(=O)[C@H](Cc1c[nH]cn1)NC(=O)[C@H](CCCNC(=N)N)NC(=O)[C@H](CC(C)C)NC(=O)[C@H](Cc1ccccc1)NC(=O)[C@H](CC(N)=O)NC(=O)[C@H](C)NC(=O)[C@H](CC(C)C)NC(=O)[C@H](CCCNC(=N)N)NC(=O)[C@H](CCC(N)=O)NC(=O)[C@@H](NC(=O)[C@H](C)NC(=O)[C@@H]1CSSC[C@H](NC(=O)[C@H](CCCCN)NC(=O)CC[C@H](NC(=O)CCCCCCCCCCCCCCCCCCC(=O)O)C(=O)O)C(=O)N[C@@H](CC(N)=O)C(=O)N[C@@H]([C@@H](C)O)C(=O)N[C@@H](C)C(=O)N[C@@H]([C@@H](C)O)C(=O)N1)[C@@H](C)O)C(=O)N1CCC[C@H]1C(=O)N[C@@H](CO)C(=O)N[C@@H](CO)C(=O)N[C@H](C(=O)N[C@@H](CC(N)=O)C(=O)N[C@H](C(=O)NCC(=O)N[C@@H](CCCNC(=N)N)C(=O)N[C@@H](CC(N)=O)C(=O)N[C@H](C(=O)N[C@@H](Cc1ccc(O)cc1)C(N)=O)[C@@H](C)O)C(C)C)[C@@H](C)O [Peptide 16] | ≥ 200 µM | ≥ 200 µM | ≥ 200 µM | ≥ 200 µM | ≥ 200 µM | ≥ 200 µM | ≥ 200 µM |  |  | 12 | 8.75 | 55 | 9.66 | 1770 pM |
